Calls of active or inactive are those of the source. The calls are words filed in the database; no cut-off is given here.
Tests used:
[1] = biological target: T1, C-X-C chemokine receptor type 4 (Homo sapiens, UniProt P61073); experiment: Displacement of [125I]-SDF-1alpha from human CXCR4 receptor expressed in HEK293 cells after 1 hr by gamma counting; type: cell-based
[2] = biological target: T1, C-X-C chemokine receptor type 4; experiment: Agonist activity at CXCR4 receptor in human REH cells assessed as induction of chemotactic migration after 3 hrs; type: functional, cell-based

T1 sequence (P61073 whole entry): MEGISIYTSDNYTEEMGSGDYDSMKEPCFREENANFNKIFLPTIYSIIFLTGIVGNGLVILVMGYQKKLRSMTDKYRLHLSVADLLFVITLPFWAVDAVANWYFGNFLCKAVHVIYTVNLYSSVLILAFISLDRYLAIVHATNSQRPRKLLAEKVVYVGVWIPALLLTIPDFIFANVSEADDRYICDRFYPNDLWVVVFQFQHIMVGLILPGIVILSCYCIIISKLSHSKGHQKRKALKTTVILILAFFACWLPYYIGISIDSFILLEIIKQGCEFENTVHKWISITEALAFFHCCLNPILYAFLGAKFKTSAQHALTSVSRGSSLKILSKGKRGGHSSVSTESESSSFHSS

SMILES | IC50 [1] [nM] | Activity [2]
NCCCC[C@@H]1NC(=O)[C@H](CCCN=C(N)N)NC(=O)[C@H](Cc2ccc(O)cc2)NC(=O)[C@@H](NC(=O)[C@H](Cc2ccc3ccccc3c2)NC(=O)[C@H](CCCN=C(N)N)NC(=O)[C@@H](N)CCCN=C(N)N)CSSC[C@@H](C(=O)N[C@@H](CCCN=C(N)N)C(=O)O)CC(=O)[C@H](CCCNC(N)=O)NC(=O)[C@H](CCCN=C(N)N)NC(=O)[C@H](Cc2ccc(O)cc2)NC(=O)[C@@H]2CCCN2C(=O)[C@@H](CCCCN)NC1=O | 1.56 | –
CC(C)C[C@H](NC(=O)[C@H](CO)NC(=O)[C@@H](NC(=O)[C@@H]1CCCN1C(=O)[C@@H](N)CCCCN)C(C)C)C(=O)N[C@@H](CO)C(=O)N[C@@H](Cc1ccc(O)cc1)C(=O)N[C@@H](CCCNC(=N)N)C(=O)N[C@@H](CO)C(=O)NCCCC[C@H](NC(=O)[C@@H]1CSSC[C@H](NC(=O)[C@H](Cc2ccc3ccccc3c2)NC(=O)[C@H](CCCNC(=N)N)NC(=O)[C@@H](N)CCCNC(=N)N)C(=O)N[C@@H](Cc2ccc(O)cc2)C(=O)N[C@@H](CCCNC(=N)N)C(=O)N[C@@H](CCCCN)C(=O)N[C@H](CCCCN)C(=O)N2CCC[C@H]2C(=O)N[C@@H](Cc2ccc(O)cc2)C(=O)N[C@@H](CCCNC(=N)N)C(=O)N[C@@H](CCCNC(N)=O)C(=O)C1)C(=O)O | 21.2 | inactive
CC(C)C[C@H](NC(=O)[C@H](CO)NC(=O)[C@@H](NC(=O)[C@@H]1CCCN1C(=O)[C@@H](N)CCCCN)C(C)C)C(=O)N[C@@H](CO)C(=O)N[C@@H](Cc1ccc(O)cc1)C(=O)N[C@@H](CCCN=C(N)N)C(=O)NCCCC[C@@H]1NC(=O)[C@H](CCCN=C(N)N)NC(=O)[C@H](Cc2ccc(O)cc2)NC(=O)[C@@H]2CCCN2C(=O)[C@@H](CCCCN)NC(=O)[C@H](CCCCN)NC(=O)[C@H](CCCN=C(N)N)NC(=O)[C@H](Cc2ccc(O)cc2)NC(=O)[C@@H](NC(=O)[C@H](Cc2ccc3ccccc3c2)NC(=O)[C@H](CCCN=C(N)N)NC(=O)[C@@H](N)CCCN=C(N)N)CSSC[C@@H](C(=O)N[C@@H](CCCN=C(N)N)C(=O)O)CC1=O | 1.36 | –
CC(C)C[C@H](NC(=O)[C@H](CO)NC(=O)[C@@H](NC(=O)[C@@H]1CCCN1C(=O)[C@@H](N)CCCCN)C(C)C)C(=O)N[C@@H](CO)C(=O)NCCCC[C@H](NC(=O)[C@@H]1CSSC[C@H](NC(=O)[C@H](Cc2ccc3ccccc3c2)NC(=O)[C@H](CCCNC(=N)N)NC(=O)[C@@H](N)CCCNC(=N)N)C(=O)N[C@@H](Cc2ccc(O)cc2)C(=O)N[C@@H](CCCNC(=N)N)C(=O)N[C@@H](CCCCN)C(=O)N[C@H](CCCCN)C(=O)N2CCC[C@H]2C(=O)N[C@@H](Cc2ccc(O)cc2)C(=O)N[C@@H](CCCNC(=N)N)C(=O)N[C@@H](CCCNC(N)=O)C(=O)C1)C(=O)O | – | inactive
CC(C)C[C@H](NC(=O)[C@H](CO)NC(=O)[C@@H](NC(=O)[C@@H]1CCCN1C(=O)[C@@H](N)CCCCN)C(C)C)C(=O)N[C@@H](CO)C(=O)N[C@@H](Cc1ccc(O)cc1)C(=O)N[C@@H](CCCN=C(N)N)C(=O)NCCCC[C@H](NC(=O)[C@@H]1CSSC[C@H](NC(=O)[C@H](Cc2ccc3ccccc3c2)NC(=O)[C@H](CCCN=C(N)N)NC(=O)[C@@H](N)CCCN=C(N)N)C(=O)N[C@@H](Cc2ccc(O)cc2)C(=O)N[C@@H](CCCN=C(N)N)C(=O)N[C@@H](CCCCN)C(=O)N[C@H](CCCCN)C(=O)N2CCC[C@H]2C(=O)N[C@@H](Cc2ccc(O)cc2)C(=O)N[C@@H](CCCN=C(N)N)C(=O)N[C@@H](CCCNC(N)=O)C(=O)C1)C(=O)O | 21.7 | –
CC(C)C[C@H](NC(=O)[C@H](CO)NC(=O)[C@@H](NC(=O)[C@@H]1CCCN1C(=O)[C@@H](N)CCCCN)C(C)C)C(=O)N[C@@H](CO)C(=O)N[C@@H](Cc1ccc(O)cc1)C(=O)N[C@@H](CCCNC(=N)N)C(=O)NCCCC[C@H](NC(=O)[C@@H]1CSSC[C@H](NC(=O)[C@H](Cc2ccc3ccccc3c2)NC(=O)[C@H](CCCNC(=N)N)NC(=O)[C@@H](N)CCCNC(=N)N)C(=O)N[C@@H](Cc2ccc(O)cc2)C(=O)N[C@@H](CCCNC(=N)N)C(=O)N[C@@H](CCCCN)C(=O)N[C@H](CCCCN)C(=O)N2CCC[C@H]2C(=O)N[C@@H](Cc2ccc(O)cc2)C(=O)N[C@@H](CCCNC(=N)N)C(=O)N[C@@H](CCCNC(=N)N)C(=O)C1)C(=O)O | 16.5 | inactive
CC(C)C[C@H](NC(=O)[C@H](CO)NC(=O)[C@@H](NC(=O)[C@@H]1CCCN1C(=O)[C@@H](N)CCCCN)C(C)C)C(=O)N[C@@H](CO)C(=O)NCCCC[C@H](NC(=O)[C@@H]1CSSC[C@H](NC(=O)[C@H](Cc2ccc3ccccc3c2)NC(=O)[C@H](CCCNC(=N)N)NC(=O)[C@@H](N)CCCNC(=N)N)C(=O)N[C@@H](Cc2ccc(O)cc2)C(=O)N[C@@H](CCCNC(=N)N)C(=O)N[C@@H](CCCCN)C(=O)N[C@H](CCCCN)C(=O)N2CCC[C@H]2C(=O)N[C@@H](Cc2ccc(O)cc2)C(=O)N[C@@H](CCCNC(=N)N)C(=O)N[C@@H](CCCNC(=N)N)C(=O)C1)C(=O)O | 28.3 | inactive
CC(C)C[C@H](NC(=O)[C@H](CO)NC(=O)[C@@H](NC(=O)[C@@H]1CCCN1C(=O)[C@@H](N)CCCCN)C(C)C)C(=O)N[C@@H](CO)C(=O)N[C@@H](Cc1ccc(O)cc1)C(=O)N[C@@H](CCCN=C(N)N)C(=O)N[C@@H](CO)C(=O)NCCCC[C@H](NC(=O)[C@@H]1CSSC[C@H](NC(=O)[C@H](Cc2ccc3ccccc3c2)NC(=O)[C@H](CCCN=C(N)N)NC(=O)[C@@H](N)CCCN=C(N)N)C(=O)N[C@@H](Cc2ccc(O)cc2)C(=O)N[C@@H](CCCN=C(N)N)C(=O)N[C@@H](CCCCN)C(=O)N[C@H](CCCCN)C(=O)N2CCC[C@H]2C(=O)N[C@@H](Cc2ccc(O)cc2)C(=O)N[C@@H](CCCN=C(N)N)C(=O)N[C@@H](CCCN=C(N)N)C(=O)C1)C(=O)O | 5.67 | –
CC(C)C[C@H](NC(=O)[C@H](CO)NC(=O)[C@@H](NC(=O)[C@@H]1CCCN1C(=O)[C@@H](N)CCCCN)C(C)C)C(=O)N[C@@H](CO)C(=O)NCCCC[C@H](NC(=O)[C@@H]1CSSC[C@H](NC(=O)[C@H](Cc2ccc3ccccc3c2)NC(=O)[C@H](CCCN=C(N)N)NC(=O)[C@@H](N)CCCN=C(N)N)C(=O)N[C@@H](Cc2ccc(O)cc2)C(=O)N[C@@H](CCCN=C(N)N)C(=O)N[C@@H](CCCCN)C(=O)N[C@H](CCCCN)C(=O)N2CCC[C@H]2C(=O)N[C@@H](Cc2ccc(O)cc2)C(=O)N[C@@H](CCCN=C(N)N)C(=O)N[C@@H](CCCNC(N)=O)C(=O)C1)C(=O)O | 62 | –
CC(C)C[C@H](NC(=O)[C@H](CO)NC(=O)[C@@H](NC(=O)[C@@H]1CCCN1C(=O)[C@@H](N)CCCCN)C(C)C)C(=O)N[C@@H](CO)C(=O)N[C@@H](Cc1ccc(O)cc1)C(=O)N[C@@H](CCCN=C(N)N)C(=O)N[C@@H](CO)C(=O)N[C@@H](C)C(=O)NCCCC[C@H](NC(=O)[C@@H]1CSSC[C@H](NC(=O)[C@H](Cc2ccc3ccccc3c2)NC(=O)[C@H](CCCN=C(N)N)NC(=O)[C@@H](N)CCCN=C(N)N)C(=O)N[C@@H](Cc2ccc(O)cc2)C(=O)N[C@@H](CCCN=C(N)N)C(=O)N[C@@H](CCCCN)C(=O)N[C@H](CCCCN)C(=O)N2CCC[C@H]2C(=O)N[C@@H](Cc2ccc(O)cc2)C(=O)N[C@@H](CCCN=C(N)N)C(=O)N[C@@H](CCCN=C(N)N)C(=O)C1)C(=O)O | 24.9 | –

Reference: ChEMBL document CHEMBL2010767, “Agonists for the Chemokine Receptor CXCR4” (ACS Med Chem Lett, 2011)
